Consider 3 molecules from patent publication US5082980A (Case Western Reserve University, priority 1990, dated 1992).

The nature of series [1]: Sterility and pyrogen status of the injectable product. To be noted: patient-ready product.
The subject of a further series is cerebral blood flow. The following applies: areas of high flow rate; limitation of water extraction in the brain tissue; cited from earlier work.
A short description of series [2]: Toxic doses / physiological effects of the non-radioactive impurities. To be noted: quantity present in product, Table I.

As to `CCCC[15OH]` [^15 O labeled butanol], in series [1], the “sterility and pyrogen status” value was “sterile and pyrogen-free”.

With `[15OH2]` [^15 O labeled water], the “cerebral blood flow measurement, deviation” value with cerebral blood flow is listed as “underestimation of cerebral blood flow in areas of high flow rate”.

On to `OB(O)O` [boric acid], for which, in series [2], the “quantity in the product relative to quantities with observed physiological effects” value is recorded as “well below any quantity which has been observed to have any physiological effects”.
